# From PubChem BioAssay (NCI)
#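 Protocol summary: plate cells (96-well), add compound at 5 concentrations, incubate 48 h, interpolate endpoints linearly. Definition used: TGI = concentration required for complete inhibition of growth.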
# Tests used:
# Assay in all cases: NCI anticancer screen, dose series, 48 h
# [1] = tested on: SF-539 CNS
# [2] = tested on: MOLT-4 leukemia
# [3] = tested on: NCI-H23 lung
# [4] = tested on: NCI-H226 lung
# [5] = tested on: SF-295 CNS
# [6] = tested on: SN12C renal
# [7] = tested on: DU-145 prostate
# [8] = tested on: KM12 colon
# [9] = tested on: NCI/ADR-RES ovarian
# [10] = tested on: HCT-116 colon
Compound,TGI [1] [µM],TGI [2] [µM],TGI [3] [µM],TGI [4] [µM],TGI [5] [µM],TGI [6] [µM],TGI [7] [µM],TGI [8] [µM],TGI [9] [µM],TGI [10] [µM]
O=C1C2SC34c5c2c2ccccc2n5CCC3CCCN14 (configuration not stated),> 100,> 100,> 100,> 100,> 100,> 100,> 100,> 100,> 100,> 100
CC1=NN(c2nc(N)nc(/C(C#N)=C\c3ccc([N+](=O)[O-])s3)n2)C(C)(C)C1,0.467,0.379,3.32,8.18,23.1,1.51,0.597,1.85,12.8,1.23
CCOC(=O)CCC(NC(=O)Cc1ccc(Nc2nc3cc(F)c(F)cc3nc2C(=O)OCC)cc1)C(=O)OCC (configuration not stated),> 100,> 100,> 100,> 100,> 100,> 100,> 100,> 100,> 100,> 100
O=C1Sc2cc3ccccc3cc2C(=O)Sc2ccc(Br)cc21,27,> 31.6,23.3,42.6,29.1,16.8,16.9,21.2,15.6,16.3
O=C1Nc2cccc(Cl)c2/C1=C\c1c(Cl)nc2n1CCS2,> 100,> 100,> 100,–,> 100,> 100,> 100,> 100,> 100,> 100
COc1cccc(CCNC(=O)Cc2ccccc2CCO)c1,> 100,> 100,> 100,> 100,> 100,> 100,> 100,> 100,> 100,> 100
COC(=O)/C=C(\C(=O)OC)C1C(=O)Oc2c(C)c(=O)c3ccccc3n21 (configuration not stated),> 100,> 100,> 100,> 100,> 100,> 100,> 100,> 100,> 100,> 100
COc1cc2c(cc1OC)C(CC1=C(c3ccccc3)CN3CCc4cc(OC)c(OC)cc4C3C1)NCC2 (configuration not stated),–,29.5,52.8,37.2,31.1,37,–,39.1,–,–
CC(=O)CCn1c(=S)sc2ccccc21,> 100,> 100,> 100,> 100,> 100,> 100,> 100,> 100,> 100,> 100
CCOC1(OCC)C2C=CC1C(COS(=O)(=O)c1ccc(C)cc1)C2COS(=O)(=O)c1ccc(C)cc1 (configuration not stated),> 100,99.3,> 100,91.1,> 100,> 100,> 100,> 100,> 100,77.1
NC(N)=NS(=O)(=O)c1ccc(NNc2c3ccccc3nc3c(C(=O)Nc4ccc(S(=O)(=O)Nc5ncccn5)cc4)cccc23)cc1,> 100,> 100,> 100,–,> 100,> 100,> 100,> 100,> 100,78.1
COc1cc(C2c3cc4c(cc3OC(N3CCCCC3)C2C)OCO4)cc(OC)c1O (configuration not stated),25.5,> 91.3,> 66.9,> 64.2,13.4,27.5,49.6,50.6,18.5,25.7
N#CC1C(=S)NC(c2ccccc2)=CC12CCCCC2 (configuration not stated),> 100,53.2,36.9,77.4,–,> 100,61.5,60.2,> 100,62.1
C=CCn1c(N)c(C#N)c(C#N)c1-c1ccccc1,> 100,> 100,> 100,> 100,> 100,> 100,> 100,> 100,> 100,–
O=C(Nc1ccccc1)c1cc(S(=O)(=O)NC2=NC(c3ccccc3)c3cc(Cl)ccc3N2)c(SSc2cc(Cl)c(C(=O)Nc3ccccc3)cc2S(=O)(=O)NC2=NC(c3ccccc3)c3cc(Cl)ccc3N2)cc1Cl (configuration not stated),> 100,> 58.3,> 100,> 100,> 100,> 100,> 100,> 100,> 100,> 100
CC(=O)N=C1N(/C=C2\C(=O)Oc3ccccc3C2=O)C(=O)/C(=C/c2cccc(Cl)c2Cl)N1C,27.7,> 100,> 100,94.2,> 100,> 100,> 100,> 100,62,> 100
Cc1n(Cc2ccccc2)c2c([n+]1C)C(=O)c1ccccc1C2=O,0.179,–,0.177,0.514,0.554,0.112,0.32,0.708,> 100,0.512
[N-]=[N+]=Nc1c([N+](=O)[O-])c(=O)n(-c2ccccc2)c2ccccc12,47.1,59.1,60.7,96.9,95.5,62.9,> 100,> 100,79.7,51.3
Cn1c(=O)c2c(ncn2CCNC(CO)C(O)c2ccc([N+](=O)[O-])cc2)n(C)c1=O (configuration not stated),> 100,> 100,> 100,> 100,> 100,> 100,–,> 100,> 100,> 100
CCO/C(O)=C(/C(=N)N1CCOCC1)C(=O)Nc1ccc(F)cc1,–,> 100,> 100,> 100,> 100,> 100,> 100,> 100,> 100,> 100
CO/N=C(\C(=O)OC(=NC1CCCCC1)NC1CCCCC1)c1csc(NC(c2ccccc2)(c2ccccc2)c2ccccc2)n1,> 10,> 10,> 10,> 10,> 10,> 10,> 10,> 10,> 10,> 10
COc1cc(Nc2nc3ccccc3nc2C(=O)O)cc(OC)c1OC,> 100,> 100,> 100,> 100,> 100,> 100,> 100,> 100,> 100,> 100
Nc1ccc2c(c1)C(=O)N1CCC[C@H]1C(=O)N2,> 100,> 100,> 100,> 100,> 100,> 100,> 100,> 100,> 100,> 100

Compound,TGI [1] [µM],TGI [2] [µM],TGI [3] [µM],TGI [4] [µM],TGI [5] [µM],TGI [6] [µM],TGI [7] [µM],TGI [8] [µM],TGI [9] [µM],TGI [10] [µM]
O=C(O)CCCc1nc2c(n1Cc1ccccc1)C(=O)c1ccccc1C2=O,> 100,> 100,> 100,–,86.1,> 100,> 100,> 100,> 100,> 100
NC(N)=NCCN1CC2CCC(CC2)C1,> 100,> 100,> 100,> 100,> 100,> 100,> 100,> 100,> 100,> 100
COc1cc(OC)c2nc(C)c(CCCl)c(Cl)c2c1,> 100,> 100,> 100,> 100,> 100,> 100,> 100,> 100,> 100,> 100
COc1cccc(C2c3cc4c(cc3OC(N3CCCCC3)C2C)OCO4)c1O (configuration not stated),5.82,37.6,> 71.6,46.7,24.3,19.4,96.9,23.1,> 100,19.9
N#C[C@H](c1ccccn1)c1nc2ccccc2nc1Cl,> 100,> 100,> 100,> 100,> 100,> 100,–,> 100,> 100,> 100
O=C(N/N=C(\c1ccccc1)c1ccccn1)NC1CCCCC1,–,> 100,> 100,83.2,> 100,> 100,> 100,> 100,–,> 100
C=CCc1cccc2cc(C(=O)NCc3ccccc3)c(=N)oc12,> 100,> 100,> 100,79.3,–,91,> 100,> 100,> 100,70.7
Cc1c(C)c2c(c(N)c1C#N)C(=O)N(NC(=O)c1ccccc1)C2=O,> 100,> 100,–,> 100,> 100,> 100,> 100,> 100,> 100,> 100
CC1CC(OP(=O)(OCc2ccccc2)OCc2ccccc2)[C@@H](OCc2ccccc2)C(OCc2ccccc2)C1OCc1ccccc1 (some centres not stated),> 100,> 100,> 100,> 100,> 100,> 100,> 100,–,> 100,> 100
O=c1oc2ccccc2cc1-c1cc2ccccn2c1,–,> 100,> 100,> 100,> 100,–,> 100,> 100,> 100,> 100
CCN(CC)Cc1ccc(C(=S)Nc2ccc(Cl)cc2)s1,31.6,34.4,9.34,–,25.2,–,29.7,26.6,25,22.9
N#Cc1n[nH]n(-c2ccc(Br)cc2)c1=O,> 100,–,> 100,> 100,> 100,> 100,> 100,> 100,> 100,> 100
O=C1COc2cccnc2N1CCCCO,> 100,> 100,–,–,> 100,> 100,> 100,> 100,–,> 100
CCCCCCNc1n[nH]c(=O)c2c1nnn2Cc1ccccc1,–,> 100,> 100,–,> 100,> 100,> 100,> 100,> 100,> 100
CN1CCc2c([nH]c3ccccc23)C1,–,> 100,> 100,> 100,> 100,> 100,> 100,> 100,> 100,> 100
Cc1ccc(-c2c(C#N)c(-c3ccc(C)cc3)n(NS(=O)(=O)c3ccccc3)c(=O)c2C#N)cc1,61.2,64.7,–,> 100,> 100,> 100,–,> 100,> 100,> 100
CC1(C)/C(=N\NC(N)=O)C2CCC1C2 (configuration not stated),–,> 100,> 100,> 100,> 100,–,> 100,> 100,> 100,> 100
CO[C@@]12C[C@@H](C)C3=CCC(C)=C3CC1=C(C)C(=O)O2,–,> 100,> 100,> 100,> 100,–,–,> 100,> 100,> 100
CCOC(=O)Nc1[nH]cc(-c2ccccc2)c1C#N,–,> 100,> 100,> 100,> 100,> 100,> 100,> 100,> 100,> 100
CC1(C)[C@@H](Cn2ccc(=O)[nH]c2=O)CC[C@@]1(C)CO,–,–,–,> 100,> 100,> 100,> 100,> 100,> 100,> 100
CN(CCSCCN(C)C(=O)OC(C)(C)C)C(=O)OC(C)(C)C,> 100,> 100,> 100,–,> 100,> 100,> 100,> 100,> 100,> 100
CC(=O)Nc1ccc(N=Nc2c(O)c(S(=O)(=O)O)cc3cc(S(=O)(=O)O)ccc23)cc1,–,–,> 100,> 100,> 100,> 100,> 100,> 100,> 100,> 100
